Reference: patent US20260001928A1 (CORTERIA PHARMACEUTICALS, priority 2022, published 2026)
*1 amine or outer side, *2 acyl side, *3 side chain or, on linkers, in order; H or OH if unused. Where a SMILES comes first, the peptide text is derived from it. Side-chain parts run from the residue outwards. [ ]: non-standard residue; d: D form. The star is where a group is joined. C20 diacid = O=C(O)CCCCCCCCCCCCCCCCCCC(=O)*; C18 diacid = O=C(O)CCCCCCCCCCCCCCCCC(=O)*; γGlu = O=C(O)[C@H](CCC(=O)[*:2])N[*:1]; NMeI = CC[C@H](C)[C@H](NC)C(=O)O; AEEA = NCCOCCOCC(=O)O; Aib = CC(C)(N)C(=O)O

Tested on: human LAD2 cells
Assay type: cell-based
Description: LAD2 cells (20000 cells/well, 96-well plates and 10,000 cells/well in 384-well plates) were incubated with compounds for 30 min. The R-hexosaminidase released into the supernatants and in cell lysates was quantified using the fluorogenic substrate 4-methylumbelliferyl-N-acetyl-b-D-glucosaminide.
On the day of the assay, the lyophilized peptides were dissolved in DMSO and/or PBS 1× pH 7.4, to obtain stock solutions. The stock solutions were used to prepare working serial dilutions to have final concentrations in assay ranging from 50, 100 or 300 to 0.1 or 0.001 μM. Each peptide was tested in biological duplicates. When compounds were dissolved in DMSO, the final solvent concentration in assay was 0.5% (v/v).
The percentage of degranulation, expressed as % of R-hexosaminidase release, was calculated by dividing the fluorescence signal of the supernatant by the sum of the signals from the supernatant and cell pellet (lysed with Triton X-100, final 1%) and multiplying by 100.
Dose-response curves were generated by plotting the % of R-hexosaminidase release versus total release of cells treated with triton (y-axis) against the concentrations of peptides tested (x-axis). The Mast Cell Degranulation (MCD) EC50 values and standard errors were calculated using XLfit 5.5.0.5 based on the following equation:
4 Parameter Sigmoidal Model: f=(A+((B−A)/(1+((C/x)^D))))
where A=Emin, B=Emax, C=EC50 and D=slope

SMILES	EC50 [µM]
CC[C@H](C)[C@H](NC)C(=O)N[C@H](C(=O)N[C@@H](CC(C)C)C(=O)N[C@@H](CO)C(=O)N[C@@H](CC(C)C)C(=O)N[C@@H](CC(=O)O)C(=O)N[C@@H](C(=O)N1CCC[C@H]1C(=O)N[C@H](C(=O)N[C@@H](CCCCN)C(=O)N[C@@H](CC(C)C)C(=O)N[C@@H](CCCCNC(=O)COCCOCCNC(=O)COCCOCCNC(=O)CC[C@H](NC(=O)CCCCCCCCCCCCCCCCC(=O)O)C(=O)O)C(=O)N[C@@H](CCCCN)C(=O)N[C@H](C(=O)N[C@@H](CC(C)C)C(=O)N[C@@H](CC(C)C)C(=O)N[C@@H](CCC(=O)O)C(=O)N[C@@H](CCC(N)=O)C(=O)N[C@@H](CCC(=O)O)C(=O)N[C@@H](CCCCN)C(=O)N[C@@H](CCC(N)=O)C(=O)N[C@@H](CCCCN)C(=O)N[C@@H](CCCCN)C(=O)N[C@@H](CCC(N)=O)C(=O)N[C@@H](CCCNC(=N)N)C(=O)N[C@@H](CCC(=O)O)C(=O)N[C@@H](CCC(N)=O)C(=O)N[C@@H](C)C(=O)N[C@@H](CCC(=O)O)C(=O)N[C@H](C(=O)N[C@@H](CC(N)=O)C(=O)NC(C)(C)C(=O)N[C@@H](CCC(N)=O)C(=O)N[C@H](C(=O)N[C@@H](CC(C)C)C(=O)N[C@@H](C)C(=O)N[C@@H](CCC(N)=O)C(=O)N[C@H](C(N)=O)C(C)C)[C@@H](C)CC)[C@@H](C)O)[C@@H](C)CC)[C@@H](C)CC)C(C)C)C(C)C [Cmpd 118] (H-[NMeI]VLSLD[dV]PIKLK([AEEA-AEEA-γGlu-C18 diacid])KILLEQEKQKKQREQAETN[Aib]QILAQV-NH2)	> 100
CC[C@H](C)[C@H](NC)C(=O)N[C@H](C(=O)N[C@@H](CC(C)C)C(=O)N[C@@H](CO)C(=O)N[C@@H](CC(C)C)C(=O)N[C@@H](CC(=O)O)C(=O)N[C@@H](C(=O)N1CCC[C@H]1C(=O)N[C@H](C(=O)N[C@@H](CCCCN)C(=O)N[C@@H](CC(C)C)C(=O)N[C@@H](CCCCNC(=O)COCCOCCNC(=O)COCCOCCNC(=O)CC[C@H](NC(=O)CCCCCCCCCCCCCCCCCCC(=O)O)C(=O)O)C(=O)N[C@@H](CCCCN)C(=O)N[C@H](C(=O)N[C@@H](CC(C)C)C(=O)N[C@@H](CC(C)C)C(=O)N[C@@H](CCC(=O)O)C(=O)N[C@@H](CCC(N)=O)C(=O)N[C@@H](CCC(=O)O)C(=O)N[C@@H](CCCCN)C(=O)N[C@@H](CCC(N)=O)C(=O)N[C@@H](CCCCN)C(=O)N[C@@H](CCC(=O)O)C(=O)N[C@@H](CCC(N)=O)C(=O)N[C@@H](CCCNC(=N)N)C(=O)N[C@@H](CCC(=O)O)C(=O)N[C@@H](CCC(N)=O)C(=O)N[C@@H](C)C(=O)N[C@@H](CCC(=O)O)C(=O)N[C@H](C(=O)N[C@@H](CC(N)=O)C(=O)NC(C)(C)C(=O)N[C@@H](CCC(N)=O)C(=O)N[C@H](C(=O)N[C@@H](CC(C)C)C(=O)N[C@@H](C)C(=O)N[C@@H](CCC(N)=O)C(=O)N[C@H](C(N)=O)C(C)C)[C@@H](C)CC)[C@@H](C)O)[C@@H](C)CC)[C@@H](C)CC)C(C)C)C(C)C [Cmpd 237] (H-[NMeI]VLSLD[dV]PIKLK([AEEA-AEEA-γGlu-C20 diacid])KILLEQEKQKEQREQAETN[Aib]QILAQV-NH2)	> 300
NC(N)=NCCC[C@@H](N)C(=O)N[C@@H](CCCN=C(N)N)C(=O)N1CCC[C@H]1C(=O)N1C[C@H](O)C[C@H]1C(=O)NCC(=O)N[C@@H](Cc1cccs1)C(=O)N[C@@H](CO)C(=O)N1Cc2ccccc2C[C@@H]1C(=O)N1[C@H](C(=O)N[C@@H](CCCN=C(N)N)C(=O)O)C[C@@H]2CCCC[C@@H]21 [Icatibant, reference compound]	16.4
